PMC9604400, “Synthesis, Anticancer and Antitubercular Properties of New Chalcones and Their Nitrogen-Containing Five-Membered Heterocyclic Hybrids Bearing Sulfonamide Moiety” (International Journal of Molecular Sciences, 2022)

What was measured:
NCI-H226 = experiment: NCI-60 screen (SRB), non-small cell lung cancer; conditions: Homo sapiens
OVCAR-5 = experiment: NCI-60 screen (SRB), ovarian cancer; conditions: Homo sapiens
SNB-75 = experiment: NCI-60 screen (SRB), CNS cancer; conditions: Homo sapiens
OVCAR-4 = experiment: NCI-60 screen (SRB), ovarian cancer; conditions: Homo sapiens
MCF7 = experiment: NCI-60 screen (SRB), breast cancer; conditions: Homo sapiens
SW-620 = experiment: NCI-60 screen (SRB), colon cancer; conditions: Homo sapiens
SK-MEL-28 = experiment: NCI-60 screen (SRB), melanoma; conditions: Homo sapiens
RXF 393 = experiment: NCI-60 screen (SRB), renal cancer
TK-10 = experiment: NCI-60 screen (SRB), renal cancer; conditions: Homo sapiens
OVCAR-8 = experiment: NCI-60 screen (SRB), ovarian cancer; conditions: Homo sapiens
KM12 = experiment: NCI-60 screen (SRB), colon cancer; conditions: Homo sapiens
DU-145 = experiment: NCI-60 screen (SRB), prostate cancer; conditions: Homo sapiens
breast cancer cell lines = experiment: NCI-60 screen (SRB), breast cancer panel; type: cell-based; conditions: Homo sapiens, single dose 10 μM, read-out: GI (growth inhibition), range over panel
SK-OV-3 = experiment: NCI-60 screen (SRB), ovarian cancer; conditions: Homo sapiens
SN12C = experiment: NCI-60 screen (SRB), renal cancer; conditions: Homo sapiens
NCI-H322M = experiment: NCI-60 screen (SRB), non-small cell lung cancer; type: cell-based; conditions: Homo sapiens
Description: All compounds selected by the US National Cancer Institute (NCI) were initially tested at a single dose (10^−5 M) on the full panel of 60 cancer cell lines represented by leukemia, melanoma, lung, colon, central nervous system (CNS), ovarian, kidney, prostate and breast cancer. Only compounds that were able to satisfy the predetermined inhibition criteria against a minimum number of cell lines proceeded to five-dose assays ([…], 0.1 and 0.01 μM).
In these studies, human cancer cell lines were cultured in a RPMI-1640 medium containing 5% fetal bovine serum and 2 mM of L-glutamine. Following the protocol for a typical assay, cells were inoculated into 96-well plates and incubated at 37 °C, 5% CO2, 95% air, and 100% relative humidity for 24 h prior to the addition of the compounds to be tested. After 24 h, two plates of each cell line were fixed in situ with trichloroacetic acid (TCA) to represent a measure of the cell population for each cell line at the time of sample addition (Tz). Compounds were dissolved in DMSO to 400-fold the maximum desired concentration for analysis and subsequently diluted to twice the maximum desired concentration with medium containing 50 μg/mL gentamicin. An additional series of four dilutions at 10-fold concentration was performed to provide a total of five concentrations of the compound plus the control. Aliquots of 100 μL of these dilutions were taken and added to 96-well plates already containing 100 μL of the medium, resulting in the final required concentrations of the sample. The plates were incubated for 48 h at the same conditions. For adherent cells, the assay was terminated with the addition of cold TCA. Cells were fixed in situ by the slow addition of 50 μL of 50% (w/v) cold ATC (final concentration, 10% TCA) and incubated for 60 min at 4 °C. The supernatant was discarded, and the plates were washed five times with tap water and air dried. A quantity of 100 μL of 0.4% (w/v) sulforhodamine B (SRB) solution in 1% acetic acid was added to each well, and each plate was incubated for 10 min at room temperature. Upon completion of staining, unbound pigment was removed by five washes with 1% acetic acid and the plates were air-dried. The stains were solubilized with 10 mM Trizma base and absorbance was recorded on an automated plate reader at a wavelength of 515 nm. Using the absorbance measurements [time zero (Tz), growth control in the absence of the sample and growth test in the presence of the sample at the five concentration levels (Ti)], the percent growth was calculated for each sample at the concentration levels. The percent growth was calculated as: [(Ti − Tz)/(C − Tz)] × 100 for concentrations for which Ti > Tz, and [(Ti − Tz)/Tz] × 100 for concentrations for which Ti < Tz. Two dose-response parameters were calculated for each compound. The 50% growth inhibition (GI50) was calculated from [(Ti − Tz)/(C − Tz)] × 100 = 50, which is the sample concentration at which the net increase in protein is 50% lower in treated cells (as measured by SRB staining) compared to the net increase in protein seen in control cells and the LC50 (sample concentration at which a 50% reduction in protein measured at the end of treatment compared to the beginning), indicating a net loss of cells; calculated from [(Ti − Tz)/Tz] × 100 = −50. Values were calculated for each of these two parameters if the activity level was reached; however, if the effect was not reached or was exceeded, the value for that parameter was expressed as greater or less than the maximum or minimum of the concentration tested.

MOLT-4 = experiment: NCI-60 screen (SRB), leukemia; conditions: Homo sapiens
SK-MEL-2 = experiment: NCI-60 screen (SRB), melanoma; conditions: Homo sapiens

How did the IC50 (NCI-H226; NCI-H226) turn out when `COc1cc(OC)c(S(N)(=O)=O)cc1C(=O)/C=C/c1ccc(C)cc1` [Compound 17c, (E)-2,4-Dimethoxy-5-(3-(p-tolyl)acryloyl)benzenesulfonamide] was run?
The IC50 was 4.14 µM.

What about the CC50 (NCI-H226; NCI-H226, read-out: LC50) of the same compound?
Its CC50 is 90.8 µM.

And the IC50 (OVCAR-5; OVCAR-5)?
Its IC50 is 2.57 µM.

What about the CC50 (OVCAR-5; OVCAR-5, read-out: LC50) of the same compound?
The CC50 was 27.2 µM.

And the IC50 (SNB-75; SNB-75)?
Its IC50 is 1.84 µM.

And the CC50 (SNB-75; SNB-75, read-out: LC50)?
The CC50 was 18.2 µM.

What about the IC50 (OVCAR-4; OVCAR-4) of the same compound?
Its IC50 is 3.66 µM.

What about the CC50 (OVCAR-4; OVCAR-4, read-out: LC50) of the same compound?
Its CC50 is 53.2 µM.

What about the IC50 (MCF7; MCF7) of the same compound?
Its IC50 is 2.48 µM.

And the CC50 (MCF7; MCF7, read-out: LC50)?
The CC50 was 54.1 µM.

And the IC50 (SW-620; SW-620)?
Its IC50 is 3.43 µM.

What about the CC50 (SW-620; SW-620, read-out: LC50) of the same compound?
The CC50 was 75.8 µM.

What about the IC50 (SK-MEL-28; SK-MEL-28) of the same compound?
Its IC50 is 4.09 µM.

And the CC50 (SK-MEL-28; SK-MEL-28, read-out: LC50)?
The CC50 was 40.8 µM.

What about the IC50 (RXF 393; Homo sapiens, RXF 393) of the same compound?
The IC50 was 2.24 µM.

And the CC50 (RXF 393; Homo sapiens, RXF 393, read-out: LC50)?
Its CC50 is 28.8 µM.

What about the lethality (RXF 393; RXF 393, single dose 10 μM) of the same compound?
Its lethality is 28.21%.

And the IC50 (TK-10; TK-10)?
The IC50 was 3.41 µM.

And the CC50 (TK-10; TK-10, read-out: LC50)?
The CC50 was 39.6 µM.

And the IC50 (OVCAR-8; OVCAR-8)?
Its IC50 is 2.17 µM.

And the CC50 (OVCAR-8; OVCAR-8, read-out: LC50)?
Its CC50 is 15.8 µM.

What about the IC50 (KM12; KM12) of the same compound?
Its IC50 is 3.13 µM.

And the CC50 (KM12; KM12, read-out: LC50)?
The CC50 was over 100 µM.

And the IC50 (DU-145; DU-145)?
The IC50 was 4.23 µM.

And the CC50 (DU-145; DU-145, read-out: LC50)?
Its CC50 is 65.1 µM.

And the inhibition at 10 µM (breast cancer cell lines)?
Its inhibition at 10 µM is 78.7 to 100%.

What about the IC50 (SK-OV-3; SK-OV-3) of the same compound?
The IC50 was 3.18 µM.

And the CC50 (SK-OV-3; SK-OV-3, read-out: LC50)?
The CC50 was 32.5 µM.

And the IC50 (SN12C)?
The IC50 was 2.95 µM.

And the CC50 (SN12C; read-out: LC50)?
The CC50 was 38.8 µM.

What about the IC50 (NCI-H322M; five-dose screen) of the same compound?
Its IC50 is 2.87 µM.

And the CC50 (NCI-H322M; read-out: LC50)?
The CC50 was 34.7 µM.

And the IC50 (MOLT-4; MOLT-4)?
The IC50 was 3.07 µM.

What about the CC50 (MOLT-4; MOLT-4, read-out: LC50) of the same compound?
Its CC50 is over 100 µM.

And the IC50 (SK-MEL-2; SK-MEL-2)?
Its IC50 is 11.5 µM.

And the CC50 (SK-MEL-2; SK-MEL-2, read-out: LC50)?
Its CC50 is 55.7 µM.
